Values of other authors, collected in patent US20070218480A1, “DETECTION AND DIAGNOSIS OF SMOKING RELATED CANCERS” (THE BOARD OF REGENTS OF THE UNIVERSITY OF TEXAS SYSTEM, priority 2006, published 2007).
Where two headings read alike, the source gives them in different places.

What was measured:
[1] = stored at in a dry, airtight, light-resistant environment
[2] = mice

For CC[C@@]1(O)C(=O)OCc2c1cc1n(c2=O)Cc2cc3ccccc3nc2-1 [Camptothecin], the storage stability [1] is given as “at least two”.

For COc1cc2ncnc(Nc3ccc(F)c(Cl)c3)c2cc1OCCCN1CCOCC1 [gefitinib], the “objective response (OR)” value (NSCLC patients; HER2 FISH-negative (no or low gain) NSCLC patients treated with gefitinib) is given as 6.4%, the “disease control rate (DCR)” value (NSCLC patients; HER2 FISH-negative patients) is given as 33.3% and the “overall survival (OS)” value (NSCLC patients; HER2 FISH-negative patients) is given as 8.4 months. For the same compound, the “time to progression (TTP)” value (NSCLC patients; HER2 FISH-negative patients) was 2.7 months, the “objective response (OR)” value (NSCLC patients; HER2 FISH-positive (high copy number) NSCLC patients treated with gefitinib) was 34.8% and the “disease control rate (DCR)” value (NSCLC patients; HER2 FISH-positive patients) was 56.5%. The “overall survival (OS)” value (NSCLC patients; HER2 FISH-positive patients) was 20.8 months and the “time to progression (TTP)” value (NSCLC patients; HER2 FISH-positive patients) was 9.05 months.

For Bleomycin, the tissue distribution [2] is given as “high concentrations of bleomycin are found in the skin, lungs, kidneys, peritoneum, and lymphatics”.
